In patent US10434138B2, “Formulations” (Sublimity Therapeutics Limited, priority 2013, dated 2019) one finds solubility in water data, which are given here for one molecule.

For data set [1] the following is noted: conversion of the g/L value.
For data set [2] the following is noted: cited from earlier work.

Where a name gives a salt, the structure may show the parent alone. Read-outs that look alike come from different tables or passages of the source.

For the molecule `NNc1nncc2ccccc12` [Hydralazine HCl], the solubility in water in data set [1] is on record as ~0.8%; in data set [2], “approximately 8 g/L”.
